Data taken from the NIST ThermoML archive (doi:10.1016/j.fluid.2009.08.017).
± gives the expanded uncertainty stated by the source.

Experiment: activity coefficient (dimensionless); of the first substance listed, at infinite dilution; xn = mol fraction of the nth substance listed
Conditions: 101 kPa, Liquid, Chromatography, x1 = 0

Row | SMILES | activity coefficient (298.15 K) | activity coefficient (308.15 K) | activity coefficient (318.15 K) | activity coefficient (328.15 K) | activity coefficient (338.15 K) | activity coefficient (348.15 K) | activity coefficient (358.15 K) | activity coefficient (368.15 K)
1 | CCCCCCCCC [nonane] + CCCCCCOCn1cc[n+](C)c1.O=S(=O)([N-]S(=O)(=O)C(F)(F)F)C(F)(F)F | 17.8 ± 1.2 | 16.6 ± 1.1 | 15.5 ± 1.1 | 14.6 ± 1 | 13.8 ± 0.9 | 13.2 ± 0.9 | 12.4 ± 0.8 | 11.9 ± 0.8
2 | CCCCCCCCC [nonane] + CCCCCCOCn1cc[n+](COCCCCCC)c1.O=S(=O)([N-]S(=O)(=O)C(F)(F)F)C(F)(F)F | 5.93 ± 0.4 | 5.67 ± 0.39 | 5.42 ± 0.37 | 5.22 ± 0.36 | 5.01 ± 0.34 | 4.84 ± 0.33 | 4.68 ± 0.32 | 4.53 ± 0.31
3 | C=CCCCCCC [oct-1-ene] + CCCCCCOCn1cc[n+](C)c1.O=S(=O)([N-]S(=O)(=O)C(F)(F)F)C(F)(F)F | 7.97 ± 0.54 | 7.67 ± 0.52 | 7.39 ± 0.5 | 7.12 ± 0.49 | 6.89 ± 0.47 | 6.69 ± 0.46 | 6.5 ± 0.44 | 6.34 ± 0.43
4 | C=CCCCCCC [oct-1-ene] + CCCCCCOCn1cc[n+](COCCCCCC)c1.O=S(=O)([N-]S(=O)(=O)C(F)(F)F)C(F)(F)F | 3.28 ± 0.22 | 3.2 ± 0.22 | 3.12 ± 0.21 | 3.05 ± 0.21 | 2.99 ± 0.2 | 2.93 ± 0.2 | 2.87 ± 0.2 | 2.83 ± 0.19
5 | CCCCCCCC [octane] + CCCCCCOCn1cc[n+](C)c1.O=S(=O)([N-]S(=O)(=O)C(F)(F)F)C(F)(F)F | 13.6 ± 0.9 | 12.8 ± 0.9 | 12.1 ± 0.8 | 11.5 ± 0.8 | 10.9 ± 0.7 | 10.4 ± 0.7 | 10 ± 0.7 | 9.51 ± 0.65
6 | CCCCCCCC [octane] + CCCCCCOCn1cc[n+](COCCCCCC)c1.O=S(=O)([N-]S(=O)(=O)C(F)(F)F)C(F)(F)F | 4.8 ± 0.33 | 4.62 ± 0.31 | 4.45 ± 0.3 | 4.3 ± 0.29 | 4.16 ± 0.28 | 4.03 ± 0.27 | 3.92 ± 0.27 | 3.81 ± 0.26
7 | CCCCC [pentane] + CCCCCCOCn1cc[n+](C)c1.O=S(=O)([N-]S(=O)(=O)C(F)(F)F)C(F)(F)F | 7.34 ± 0.5 | 6.93 ± 0.47 | 6.54 ± 0.45 | 6.25 ± 0.43 | 5.92 ± 0.4 | 5.68 ± 0.39 | 5.43 ± 0.37 | 5.21 ± 0.36
8 | CCCCC [pentane] + CCCCCCOCn1cc[n+](COCCCCCC)c1.O=S(=O)([N-]S(=O)(=O)C(F)(F)F)C(F)(F)F | 2.78 ± 0.19 | 2.69 ± 0.18 | 2.62 ± 0.18 | 2.54 ± 0.17 | 2.48 ± 0.17 | 2.43 ± 0.17 | 2.38 ± 0.16 | 2.33 ± 0.16
9 | CCCO [propan-1-ol] + CCCCCCOCn1cc[n+](C)c1.O=S(=O)([N-]S(=O)(=O)C(F)(F)F)C(F)(F)F | 1.83 ± 0.12 | 1.64 ± 0.11 | 1.49 ± 0.1 | 1.36 ± 0.09 | 1.24 ± 0.08 | 1.15 ± 0.07 | 1.07 ± 0.07 | 0.989 ± 0.062
10 | CCCO [propan-1-ol] + CCCCCCOCn1cc[n+](COCCCCCC)c1.O=S(=O)([N-]S(=O)(=O)C(F)(F)F)C(F)(F)F | 1.31 ± 0.09 | 1.19 ± 0.08 | 1.09 ± 0.07 | 1 ± 0.063 | 0.929 ± 0.059 | 0.861 ± 0.055 | 0.803 ± 0.052 | 0.752 ± 0.049
11 | C1CCOC1 [tetrahydrofuran] + CCCCCCOCn1cc[n+](C)c1.O=S(=O)([N-]S(=O)(=O)C(F)(F)F)C(F)(F)F | 0.424 ± 0.035 | 0.438 ± 0.035 | 0.452 ± 0.036 | 0.466 ± 0.036 | 0.479 ± 0.037 | 0.491 ± 0.037 | 0.504 ± 0.038 | 0.515 ± 0.038
12 | C1CCOC1 [tetrahydrofuran] + CCCCCCOCn1cc[n+](COCCCCCC)c1.O=S(=O)([N-]S(=O)(=O)C(F)(F)F)C(F)(F)F | 0.294 ± 0.031 | 0.304 ± 0.031 | 0.314 ± 0.031 | 0.324 ± 0.032 | 0.333 ± 0.032 | 0.343 ± 0.032 | 0.352 ± 0.032 | 0.36 ± 0.033
13 | c1ccsc1 [thiophene] + CCCCCCOCn1cc[n+](C)c1.O=S(=O)([N-]S(=O)(=O)C(F)(F)F)C(F)(F)F | 0.743 ± 0.049 | 0.744 ± 0.049 | 0.744 ± 0.049 | 0.745 ± 0.049 | 0.746 ± 0.049 | 0.746 ± 0.049 | 0.747 ± 0.049 | 0.747 ± 0.049
14 | c1ccsc1 [thiophene] + CCCCCCOCn1cc[n+](COCCCCCC)c1.O=S(=O)([N-]S(=O)(=O)C(F)(F)F)C(F)(F)F | 0.578 ± 0.041 | 0.575 ± 0.041 | 0.571 ± 0.041 | 0.568 ± 0.041 | 0.565 ± 0.041 | 0.562 ± 0.04 | 0.559 ± 0.04 | 0.557 ± 0.04
15 | Cc1ccccc1 [toluene] + CCCCCCOCn1cc[n+](C)c1.O=S(=O)([N-]S(=O)(=O)C(F)(F)F)C(F)(F)F | 1.05 ± 0.066 | 1.06 ± 0.067 | 1.07 ± 0.068 | 1.08 ± 0.068 | 1.09 ± 0.069 | 1.1 ± 0.069 | 1.1 ± 0.07 | 1.11 ± 0.07
16 | Cc1ccccc1 [toluene] + CCCCCCOCn1cc[n+](COCCCCCC)c1.O=S(=O)([N-]S(=O)(=O)C(F)(F)F)C(F)(F)F |  | 0.743 ± 0.049 | 0.746 ± 0.049 | 0.749 ± 0.049 | 0.753 ± 0.05 | 0.756 ± 0.05 | 0.758 ± 0.05 | 0.761 ± 0.05
17 | O [water] + CCCCCCOCn1cc[n+](C)c1.O=S(=O)([N-]S(=O)(=O)C(F)(F)F)C(F)(F)F | 4.37 ± 0.3 | 3.81 ± 0.26 | 3.32 ± 0.23 | 2.9 ± 0.2 | 2.57 ± 0.17 | 2.28 ± 0.16 | 2.04 ± 0.14 | 
18 | O [water] + CCCCCCOCn1cc[n+](COCCCCCC)c1.O=S(=O)([N-]S(=O)(=O)C(F)(F)F)C(F)(F)F | 4.43 ± 0.3 | 3.8 ± 0.26 | 3.31 ± 0.23 | 2.93 ± 0.2 | 2.53 ± 0.17 | 2.24 ± 0.15 | 2.02 ± 0.14 | 1.83 ± 0.12
